Data taken from patent US20250064990A1, “METHODS OF SCREENING FOR VMAT2 INHIBITORS” (Neurocrine Biosciences, Inc., priority 2021, published 2025).

Test: NBI-750142 concentration in cynomolgus monkey plasma by LC-MS/MS
Type: in vivo, cynomolgus monkeys (Macaca fascicularis)
Details: for concentration at 30 min / concentration at 60 min / concentration at 90 min / concentration at 120 min / concentration at 150 min / concentration at 180 min / concentration at 1 min: cynomolgus monkey, intravenous
Procedure: During each scan, whole blood PK samples were collected (in K2 EDTA tubes) at pre-dose (−5 min), and post-dose at 1 (end of bolus), 30, 60 (just prior to [^18F]AV-133 radiopharmaceutical administration), 90, 120, 150, 180 (end of scan) minutes after test article administration. PK samples were approximately 1 mL each (8 mL total, including pre-dose sample). PK sample collection times were relative to start of NBI-750142 bolus administration.
NBI-750142 concentration in cynomolgus monkey plasma samples was analyzed using a qualified LC-MS/MS bioanalytical method. […] Plasma samples were processed using protein precipitation extraction with 0.1% formic acid in acetonitrile and the addition of stable deuterium isotope labeled internal standard NBI-750142-D6. Processed samples were chromatographically separated on a C18 column and coupled to a Sciex API 4000 triple quadrupole mass spectrometer.
The method used in this study was qualified for a range of 0.250 to 250 ng/mL based on the analysis of 100 μL of plasma by LC-MS-MS. Quantitation was performed using a weighted 1/×2 linear least squares regression analysis generated from calibration standards. The protein precipitation extraction procedure began with the addition of internal standard solution (20.0 μL of approximately 100 ng/mL deuterated NBI-750142-D6). After adding 400 μL of acetonitrile/formic acid (1000:1.00), the tubes were sealed, vortexed and centrifuged. Subsequently, 100 μL of the supernatant was transferred to a new plate containing 400 μL of water/formic acid (1000:1.00). […] A triple quadrupole mass spectrometer (Sciex API 4000) equipped with TurboIonSpray source was used in the positive ion mode. Quantitation was based on multiple reaction monitoring (MRM) of m/z transitions of NBI-750142 and NBI-750142-D6.

[1] = 0.026 mg/kg, GC786, 0.026 mg/kg i.v.
[2] = 0.084 mg/kg, EC865, 0.084 mg/kg i.v.
[3] = 0.26 mg/kg, GC786, 0.26 mg/kg i.v.
[4] = 0.26 mg/kg, LC206, 0.26 mg/kg i.v.
[5] = 0.52 mg/kg, EC865, 0.52 mg/kg i.v.
[6] = 0.78 mg/kg, GC786, 0.78 mg/kg i.v.

COc1cc2c(cc1OC)[C@H]1CN(C)[C@H](CC(C)(C)C)CN1CC2 [NBI-750142]
Mean ng/mL NBI-750142 Concentration during PET Scan (60-180 min) (EC865, 0.084 mg/kg i.v.): 6.4 ng/mL
Mean ng/mL NBI-750142 Concentration during PET Scan (60-180 min) (EC865, 0.52 mg/kg i.v.): 37.6 ng/mL
Mean ng/mL NBI-750142 Concentration during PET Scan (60-180 min) (GC786, 0.026 mg/kg i.v.): 2.9 ng/mL
ng/mL NBI-750142 at 1 min (GC786, 0.026 mg/kg i.v., BLQ = <0.250 ng/mL): BLQ
Mean ng/mL NBI-750142 Concentration during PET Scan (60-180 min) (GC786, 0.26 mg/kg i.v.): 12.3 ng/mL
Mean ng/mL NBI-750142 Concentration during PET Scan (60-180 min) (GC786, 0.78 mg/kg i.v.): 74.5 ng/mL
Mean ng/mL NBI-750142 Concentration during PET Scan (60-180 min) (LC206, 0.26 mg/kg i.v.): 35.7 ng/mL
concentration at 30 min [1]: 2.31 ng/mL
concentration at 60 min [1]: 2.24 ng/mL
concentration at 90 min [1]: 2.56 ng/mL
concentration at 120 min [1]: 2.69 ng/mL
concentration at 150 min [1]: 3.69 ng/mL
concentration at 180 min [1]: 3.1 ng/mL
concentration at 1 min [2]: 108 ng/mL
concentration at 30 min [2]: 7.42 ng/mL
concentration at 60 min [2]: 6.04 ng/mL
concentration at 90 min [2]: 5.91 ng/mL
concentration at 120 min [2]: 5.85 ng/mL
concentration at 150 min [2]: 7.34 ng/mL
concentration at 180 min [2]: 7.07 ng/mL
concentration at 1 min [3]: 102 ng/mL
concentration at 30 min [3]: 18.4 ng/mL
concentration at 60 min [3]: 10.6 ng/mL
concentration at 90 min [3]: 6.85 ng/mL
concentration at 120 min [3]: 13.4 ng/mL
concentration at 150 min [3]: 15.2 ng/mL
concentration at 180 min [3]: 15.3 ng/mL
concentration at 1 min [4]: 119 ng/mL
concentration at 30 min [4]: 31 ng/mL
concentration at 60 min [4]: 26 ng/mL
concentration at 90 min [4]: 38.3 ng/mL
concentration at 120 min [4]: 41.1 ng/mL
concentration at 150 min [4]: 37.7 ng/mL
concentration at 180 min [4]: 35.2 ng/mL
concentration at 1 min [5]: 295 ng/mL
concentration at 30 min [5]: 45.1 ng/mL
concentration at 60 min [5]: 36.9 ng/mL
concentration at 90 min [5]: 35.3 ng/mL
concentration at 120 min [5]: 36.2 ng/mL
concentration at 150 min [5]: 38.4 ng/mL
concentration at 180 min [5]: 41.3 ng/mL
concentration at 1 min [6]: 186 ng/mL
concentration at 30 min [6]: 63 ng/mL
concentration at 60 min [6]: 65.2 ng/mL
concentration at 90 min [6]: 69.9 ng/mL
concentration at 120 min [6]: 75.1 ng/mL
concentration at 150 min [6]: 76 ng/mL
concentration at 180 min [6]: 86.5 ng/mL
